Data from the supplement of paper PMC10307832.

The cell lines below were run with CC(C)(C)c1cc(NC(=O)Nc2ccc(-c3cn4c(n3)sc3cc(OCCN5CCOCC5)ccc34)cc2)no1 [Quizartinib] + O=C(c1cc(Cc2n[nH]c(=O)c3ccccc23)ccc1F)N1CCN(C(=O)C2CC2)CC1 [Olaparib] (partner 8 µM) (assay: relative viability (nuclei count vs DMSO), 5 days (fraction); higher = more cells survive). Details: first compound 0.003162 µM.
Outline: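 Medians of duplicate plates are given as relative viability. That measure is the nuclei count in treated wells divided by the count in vehicle wells. Counts were taken on 4× images of lung cancer cell lines in 1536-well plates, 5 days after pin-tool dosing the day after seeding with one drug alone or a fixed anchor-drug dose plus five library-drug doses (not always all listed) in √10 steps.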

Row | Cell Line | relative viability
1 | NCI-H647 | 0.507
2 | Calu-6 | 0.549
3 | LCLC-97TM1 | 0.332
4 | NCI-H1703 | 0.306
5 | LXF-289 | 0.987
6 | LU99A | 0.251
7 | NCI-H2023 | 0.422
8 | NCI-H2228 | 0.729
9 | NCI-H1437 | 0.587
10 | NCI-H2009 | 0.64
11 | EBC-1 | 0.68
12 | COR-L 105 | 0.795
13 | SK-LU-1 | 0.469
14 | IA-LM | 0.796
15 | SW 900 | 0.871
16 | NCI-H661 | 0.712
17 | CAL-12T | 0.76
18 | A549 | 0.327
19 | NCI-H2342 | 0.474
20 | SW 1573 | 0.538
21 | NCI-H1650 | 0.816
22 | COR-L23 | 0.356
23 | NCI-H522 | 0.764

Same assay, conditions: first compound 0.01 µM

Row | Cell Line | relative viability
24 | EKVX | 0.886
25 | EPLC-272H | 0.861
26 | NCI-H520 | 0.367
27 | NCI-H650 | 0.44
28 | RERF-LC-KJ | 0.938
29 | NCI-H2087 | 0.619
30 | SK-MES-1 | 0.805
31 | NCI-H1299 | 0.987
32 | NCI-H1651 | 0.192
33 | UMC-11 | 0.464
34 | NCI-H1355 | 0.761
35 | H3255 | 0.565
36 | NCI-H1792 | 0.54
37 | NCI-H647 | 0.669
38 | Calu-6 | 0.512
39 | LCLC-97TM1 | 0.406
40 | NCI-H1703 | 0.2
41 | LXF-289 | 1.16

Row | Cell Line | relative viability
42 | LU99A | 0.293
43 | NCI-H2023 | 0.513
44 | NCI-H2228 | 1.02
45 | NCI-H1437 | 0.627
46 | NCI-H2009 | 0.628
47 | EBC-1 | 0.803
48 | COR-L 105 | 0.65
49 | SK-LU-1 | 0.458
50 | IA-LM | 0.851
51 | SW 900 | 0.968
52 | NCI-H661 | 0.751
53 | CAL-12T | 0.674
54 | A549 | 0.378
55 | NCI-H2342 | 0.51
56 | SW 1573 | 0.572
57 | NCI-H1650 | 0.607
58 | COR-L23 | 0.319
59 | NCI-H522 | 0.716

Same assay, conditions: first compound 0.03162 µM

Row | Cell Line | relative viability
60 | EKVX | 0.904
61 | EPLC-272H | 0.658
62 | NCI-H520 | 0.352
63 | NCI-H650 | 0.4
64 | RERF-LC-KJ | 0.545
65 | HCC-827 | 0.616
66 | NCI-H2087 | 0.587
67 | NCI-H1299 | 0.995
68 | NCI-H1651 | 0.186
69 | UMC-11 | 0.315
70 | NCI-H1355 | 0.748
71 | H3255 | 0.525
72 | NCI-H1792 | 0.483
73 | NCI-H647 | 0.499
74 | Calu-6 | 0.492
75 | LCLC-97TM1 | 0.467

Row | Cell Line | relative viability
76 | NCI-H1703 | 0.166
77 | LXF-289 | 1
78 | LU99A | 0.276
79 | NCI-H2228 | 0.707
80 | NCI-H1437 | 0.584
81 | NCI-H2009 | 0.54
82 | EBC-1 | 0.626
83 | SK-LU-1 | 0.467
84 | IA-LM | 0.75
85 | SW 900 | 0.921
86 | NCI-H661 | 0.733
87 | CAL-12T | 0.594
88 | A549 | 0.257
89 | NCI-H2342 | 0.388
90 | COR-L23 | 0.274
91 | NCI-H522 | 0.6

Same assay, conditions: first compound 0.1 µM

Row | Cell Line | relative viability
92 | EKVX | 1.01
93 | EPLC-272H | 0.434
94 | NCI-H520 | 0.29
95 | NCI-H650 | 0.474
96 | RERF-LC-KJ | 0.972
97 | HCC-827 | 0.697
98 | NCI-H2087 | 0.583
99 | SK-MES-1 | 0.732
100 | NCI-H1299 | 0.984
101 | NCI-H1651 | 0.177
102 | UMC-11 | 0.471
103 | NCI-H1355 | 0.679
104 | H3255 | 0.57
105 | NCI-H1792 | 0.312
106 | NCI-H647 | 0.585
107 | Calu-6 | 0.64
108 | LCLC-97TM1 | 0.417
109 | NCI-H1703 | 0.307
110 | LXF-289 | 0.992

Row | Cell Line | relative viability
111 | LU99A | 0.238
112 | NCI-H2023 | 0.417
113 | NCI-H2228 | 0.807
114 | NCI-H1437 | 0.468
115 | NCI-H2009 | 0.597
116 | EBC-1 | 0.754
117 | COR-L 105 | 0.863
118 | SK-LU-1 | 0.432
119 | IA-LM | 0.74
120 | SW 900 | 0.885
121 | NCI-H661 | 0.723
122 | CAL-12T | 0.841
123 | A549 | 0.439
124 | NCI-H2342 | 0.395
125 | SW 1573 | 0.581
126 | NCI-H1650 | 0.737
127 | COR-L23 | 0.247
128 | NCI-H522 | 0.783
